No end group written: not given here.
Key:
Test in all cases: biochemical
Assay type in all cases: binding
HLA-A3.2 (A*0301) = HLA-A3.2 (A*0301) (Homo sapiens, UniProt P04439)
HLA-A11 (A*1101) = HLA-A11 (A*1101) (Homo sapiens, UniProt P04439, A114D/D185E/E176A/F33Y/L180Q/S129P/T187R)
A31 (A*3101) = A31 (A*3101) (Homo sapiens, UniProt P04439, A270S/D185E/E176V/E277Q/F33T/G231S/G80R/H175R/I121M/I218V/I322F/K168Q/L300P/L318F/M331R/P217A/Q94H/R138Q/T323A/T345S/T97I/V358M)
A*3301 = A*3301 (Homo sapiens, UniProt P04439, A270S/D185E/E176V/E277Q/E87N/F33T/G231S/H175R/I121M/I218V/I322F/K168Q/K210R/L300P/L318F/M331R/P217A/Q86R/Q94H/R138Q/T323A/T345S/T97I/V358M/Y195H)
A*6801 = A*6801 (Homo sapiens, UniProt P04439, A269V/D185E/E176V/E277Q/E87N/F33Y/G231S/I121M/I166T/I218V/L180W/L300P/L318F/N151K/P208A/P217A/Q86R/R169H/T345S)

| Sequence | IC50 (HLA-A3.2 (A*0301)) [nM] | IC50 (HLA-A11 (A*1101)) [nM] | IC50 (A31 (A*3101)) [nM] | IC50 (A*3301) [nM] | IC50 (A*6801) [nM] |
| --- | --- | --- | --- | --- | --- |
| SFFQNLQVIR [Peptide 9012.0232] | 3800 | 3990 | 432 | 702 | 1400 |
| VTVKVGGQLR [Peptide 1516.06] | 8930 | 199 | 503 | 12700 | 96 |
| TFWNPPTTAR [Peptide 1556.02] | 18100 | 1500 | 57 | 40 | 29 |
| VVLLLVRYK [Peptide 1587.05] | 13 | 21 | 1.2 | 21 | 540 |
| GTRQARKNRR [Peptide 9017.0200] | 1550 | 2920 | 56 | 8370 | 1480 |
| RLECAIYYK [Peptide 1589.01] | 55 | 30 | 150 | 6550 | 7020 |
| EFMSFLTALK [Peptide 1587.10] | 477 | 683 | 5960 | 21 | 20 |
| CTYSPALNR [Peptide 1556.42] | 27 | 9.6 | 17 | 8.6 | 19 |
| TVNEYNTHK [Peptide 1589.36] | 83 | 20 | 4120 | 2730 | 49 |
| MTDAGTWDK [Peptide 88.0400] | 1580 | 12 | > 20000 | > 20000 | 28 |
| FTDLRIVYR [Peptide 1550.08] | 2940 | 10500 | 65 | 9.7 | 158 |
| QQLLFIHFR [Peptide 9017.0111] | 1800 | 4.8 | 2 | 41 | 17 |
| TQQMLQVEGR [Peptide 88.0128] | > 20000 | 3000 | 354 | 1850 | 739 |
| GSQPKTACNK [Peptide 9017.0202] | 472 | 30 | 1480 | > 20000 | 15800 |
| LLFYSKVRK [Peptide 78.0298] | 3.9 | 13 | 395 | 799 | 23 |
| LTSQIEHWK [Peptide 88.0439] | 4940 | 14 | 8880 | > 20000 | 24 |
| GVVFGILIKK [Peptide 9012.0242] | 484 | 17 | > 20000 | > 20000 | 146 |
| KTTVLFKFK [Peptide 88.0369] | 31 | 20 | 36 | 1400 | 874 |
| FLSQVKIPK [Peptide 1589.05] | 86 | 22 | 72 | 158 | 48 |
| AFRDLCIVYR [Peptide 78.0079] | 3110 | 4380 | 13 | 41 | 600 |
| ATTPIIHLK [Peptide 1589.18] | 9.7 | 7.6 | 49 | 11200 | 6.7 |
| SVYGTTLEK [Peptide 78.0282] | 19 | 3.8 | 8880 | > 20000 | 15 |
| KLFGYSWYK [Peptide 76.0146] | 11 | 7.3 | 7.3 | 3720 | 16 |
| ISYGRKKRR [Peptide 9017.0079] | 9280 | > 20000 | 36 | 1120 | 1360 |

Reference: US9340577B2, “HLA binding motifs and peptides and their uses” (priority 1992, dated 2016)
